These results are taken from patent US12570617B2 (Kyungpook National University Industry-Academic Cooperation …, priority 2020, dated 2026).

Experiment [1] relates to postoperative ileus (POI) mouse model. Put plainly: Delayed gastric emptying in postoperative ileus (POI) mouse model. The experiment is classed as in vivo. The settings on record: POI mice, oral 10, 20, 30 mg/kg 20 hours after POI surgery. On the procedure: (§1) Mice aged 6-8 weeks were fasted for one day and then anesthetized with a mixture of ketamine and xylazine. The abdomen and peritoneum were then incised, and the small intestine was exposed on a sterile gauze pad. Manipulation was performed from the duodenum to the cecum for 5 minutes by using a sterile cotton swab. After surgery, the abdomen was sutured and the mice were allowed to recover for 4 hours in a cage maintained at 32 degrees.
Triazole compounds (10 mg/kg, 20 mg/kg and 30 mg/kg) were orally administered 20 hours after POI surgery. […] After 30 minutes, the stomach of the mouse was removed and put into a 0.1N NaOH 2 ml solution to homogenize same. 3 ml of 0.1N NaOH solution was added and centrifuged at 3000 rpm at 4 degrees for 10 minutes. After adding […] of 20% trichloroacetic acid to the supernatant, the mixture was centrifuged at 3000 rpm at 4 degrees for 10 minutes. […] The percentage of the gastric emptying delay was calculated by (1−(absorbance of test sample)/(baseline control absorbance)×100.

The subject of experiment [2] is 170 G protein-coupled receptors. Put plainly: G protein coupled receptor agonist and antagonist analysis, panel of 170 receptors (Eurofins Discovery). The experiment is classed as cell-based. The arrangement: dose or concentration left out as unconfirmed. Conditions: alone (agonist effect) or together with ligands for each receptor (antagonist effect). How it is done:
(§2) The efficacy of triazole compounds […] as agonists and antagonists for a total of 170 types of G protein-coupled receptors was performed by Eurofins Discovery.
(§3) The family of G protein-coupled receptors comprises many types of receptors comprising a ghrelin receptor. It was checked whether or not the triazole compounds have efficacy as agonists or antagonists of different types of G protein-coupled receptors.

Experiment [3] deals with cancer cachexia mouse model. Put plainly: Cancer cachexia mouse model (CT26): grip test, Rota-rod test, cancer size, body weight, feed intake, fat and muscle weight. In kind it is in vivo. The settings on record: cancer cachexia mice; for body weight / cancer size / muscle mass / subcutaneous fat weight / total fat weight / visceral fat weight / daily feed intake: oral 10 mg/kg daily; for muscle mass / subcutaneous fat weight / total fat weight / visceral fat weight: 20th day. How it is done:
Cultured 1×10^6 cells were subcutaneously injected into the right side of the abdomen of 10-week-old mice. The size of the cancer grown in the right abdomen, body weight, and feed intake were measured once every time after cell injection, and 10 mg/kg of a triazole compound was orally administered daily from the 9th day. On the 18th day of cancer cell injection, each of the grip test and Rota-rod test for evaluating the muscle function was performed for 1 day. On the 20th day, subcutaneous fat, visceral fat and muscle (femur, calf) of the mouse were separated and weighed.
For the evaluation of muscle function, the grip test was performed by holding the mouse by having the mouse hold the metal grid attached to the grip strength meter, holding the tail of the mouse, and pulling it from behind horizontally. The force applied to the metal grid immediately before losing the grip was recorded in the measuring instrument as the maximum tension in g, and the entire process was performed 9 times per subject to record the average value. In the Rota-rod test (Ugo Basile, Comerio, VA, Italy), Rota-rod exercise was performed at least three times at a rotational speed of 4 rpm by using a machine equipped with a rod with the diameter of 3 cm appropriately processed to provide grip to measure the endurance time of the tested animals in seconds and record the average value. Each Rota-rod behavior test was not to exceed 5 minutes per time.

For experiment [4], the target named is T1, ghrelin receptor (Homo sapiens, UniProt Q92847). Put plainly: G protein coupled receptor agonist analysis (Eurofins Discovery), ghrelin receptor. The experiment is classed as cell-based. The arrangement: Eurofins Discovery; dose or concentration left out as unconfirmed. Conditions: compound alone (agonist effect). How it is done: as §2, §3
Target sequence in this assay (Q92847 whole entry, species assumed): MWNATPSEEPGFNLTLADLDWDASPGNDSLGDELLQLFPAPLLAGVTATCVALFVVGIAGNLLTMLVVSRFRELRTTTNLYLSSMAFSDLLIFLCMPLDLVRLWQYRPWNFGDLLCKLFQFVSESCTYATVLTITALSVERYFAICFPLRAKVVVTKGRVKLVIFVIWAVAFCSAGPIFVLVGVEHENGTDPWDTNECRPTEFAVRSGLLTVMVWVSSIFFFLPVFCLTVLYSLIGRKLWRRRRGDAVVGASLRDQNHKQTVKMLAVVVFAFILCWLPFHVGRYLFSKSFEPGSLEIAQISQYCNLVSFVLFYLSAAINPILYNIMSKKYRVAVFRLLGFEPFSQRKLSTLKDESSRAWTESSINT
The subject of experiment [5] is postoperative ileus (POI) mouse model. Put plainly: Colon transit time of feces in postoperative ileus (POI) mouse model. In kind it is in vivo. Conditions: POI mice; for colon transit time of feces: oral 30 mg/kg 4 hours after POI surgery; for colon transit time of feces / feed intake: vs PBS; for body weight / feed intake: 24 hours. How it is done: as §1
To evaluate the colon transit time of feces, 200 ul of trypan blue dye was injected into the proximal colon before suturing after POI surgery. A triazole compound (30 mg/kg) was orally administered 4 hours after POI surgery. The mouse was transferred to a metabolic cage, and the weighed feed was administered thereinto, and the time at which the first feces stained with trypan blue appeared was measured for 24 hours. At the 24th hour, the number and weight of feces were measured, and the weight of the consumed feed and the mouse's body weight were measured.

The target in experiment [6] is T1, ghrelin receptor. Put plainly: Intracellular calcium influx in HEK293 cells overexpressing a ghrelin receptor. In kind it is cell-based. Details: host or cells: HEK293 (ATCC). The settings on record: read-out: EC50, concentration capable of inducing 50% intracellular calcium influx. On the procedure: Human embryonic kidney 293 (HEK293) cells were purchased from ATCC and cultured in a DMEM medium comprising 10% FBS at 37° C. and in 5% CO2.
After treating the cells with 100 ul of a wash buffer, fluorescently labeled intracellular calcium was imaged at an excitation wavelength of 485 nm and an emission wavelength of 520 nm for 1 minute at a shutter interval of 10 seconds under a laser scanning confocal microscope equipped with a temperature and humidity control equipment. […] Intracellular calcium fluorescence intensity by treatment with compounds was quantified by calculating same based on the fluorescence intensity when not treated with compounds.
Target sequence in this assay (Q92847 whole entry): as the sequence (Q92847 whole entry, species assumed) above

In the case of `CCCCCCCCCn1cc(C(N)(CO)CO)nn1` [KARI201, 2-amino-2-(1-nonyl-1H-1,2,3-triazol-4-yl)propane-1,3-diol], in experiment [1], the delayed gastric emptying result is on record as “significant improvement”. Besides, the “specificity among 170 G protein-coupled receptors (agonist or antagonist efficacy)” value in experiment [2] was “ghrelin receptor-specific agonist”. Further, in experiment [3], the body weight result was “did not affect” and the cancer size entry is “did not affect”. Besides, in experiment [3] (vs Vehicle), the muscle mass entry is on record as “increased”, the subcutaneous fat weight result is on record as “increased”, the total fat weight entry is “increased” and the visceral fat weight result is “increased”. Moreover, the daily feed intake entry in experiment [3] (vs Vehicle) is on record as “increased”. For the same molecule, on ghrelin receptor [4], the “efficacy as a ghrelin receptor agonist” value worked out at 83.7%. The “colon transit time of feces” value in experiment [5] is “significantly reduced”. In experiment [5] (oral 30 mg/kg), the body weight result is recorded as “no change” and the feed intake entry was “increased”. Further, in experiment [5] (oral 30 mg/kg, at the 24th hour), the “number and weight of feces” value is “increased”.

`CCCCCCCCCCn1cc(C(N)(CO)CO)nn1` [KARI101, 2-amino-2-(1-decyl-1H-1,2,3-triazol-4-yl) propane-1,3-diol]: the delayed gastric emptying result in experiment [1] was “significant improvement”. Besides, at ghrelin receptor [6], the EC50 was found to be 189 nM. In addition, in experiment [3], the body weight entry is reported as “did not affect” and the cancer size result is reported as “did not affect”. Further, in experiment [3] (vs Vehicle), the muscle mass entry is listed as “increased”, the subcutaneous fat weight entry was “increased”, the total fat weight entry is given as “increased” and the visceral fat weight result was “increased”. In addition, the daily feed intake result in experiment [3] (vs Vehicle) is “increased”. Further, the “muscle strength function (Grip test and Rota-rod test)” value in experiment [3] (oral 10 mg/kg once daily from 9th day, tested 18th day, vs Vehicle) was “significantly improved”. The “colon transit time of feces” value in experiment [5] is listed as “significantly reduced”. Moreover, in experiment [5] (oral 30 mg/kg), the body weight result was “no change” and the feed intake result is recorded as “increased”.

Consider `CCCCCCCCCCCCn1cc(C(N)(CO)CO)nn1` [KARI001, 2-amino-2-(1-dodecyl-1H-1,2,3-triazol-4-yl)propane-1,3-diol], for which the EC50 at ghrelin receptor [6] is 128 nM.
